One data set has as its system Wt mouse heart. The data set can be described thus: Ex vivo lactate perfusion of heart, ventricular arrhythmia. To be noted: 2 out of 5 mice, control 0%. An excerpt: Cardiac elevation of NADH through ex vivo lactate perfusion of Wt mouse heart increases the incidence of ventricular arrhythmia by 40% (2 out of 5 mice) (FIGS. 5A and 5B).
The test system of another data set is diabetic hearts (db/db). In words: Langendorff myocardial ischemia-reperfusion injury, diabetic hearts. On the set-up: species or system mice. The following applies: 4 week treated diabetic hearts, 45 min ischemia, 60 min reperfusion, vs vehicle.
The subject of data set [1] is db/db mice. The data set can be described thus: ECG, cardiac electrical abnormalities. To be noted: 20 week old, vs vehicle treated db/db. It is filed as in vivo. The protocol:
(§1) To determine the effect of the Nampt activator on blood sugar control and cardiac electrical activity in diabetics, we examined the effects of P7C3,in a diabetic mouse model (db/db mice). Briefly, wild-type or db/db mice were treated with a Nampt activator (P7C3) or control. The Nampt activator or control was administered daily via intraperitoneal (i.p.) injection at about 10 mg/kg.

Data set [2] relates to db/db mice. In words: NADH/NAD ratio in diabetic model. It is filed as in vivo. To be noted: 4 weeks treatment, vs vehicle.
The subject of data set [3] is db/db mice. In words: Serum insulin levels by ELISA. The format is in vivo. To be noted: diabetic mice, about 10 mg/kg i.p., 4 weeks, vs vehicle. As for the experimental part:
A Nampt activator, P7C3, was administered and various effects were evaluated. […] Briefly, the dose of P7C3 was about 10 mg/kg and administered i.p. to diabetic mice and the effect on serum insulin, insulin tolerance, blood glucose, and pancreatic beta cell number and insulin granulation in the islets of a diabetic model pancreas. The serum from P7C3 or vehicle treated diabetic mice and measured the insulin levels by ELISA assay.
On the technique in general: An ELISA detects its analyte on a solid surface through an enzyme-linked reagent.

The test system of data set [4] is db/db mice. The data set can be described thus: Intra-peritoneal glucose tolerance test (IPGTT). The format is in vivo. To be noted: 10 mg/kg, 4 weeks, vs vehicle. As for the experimental part:
The diabetic model was treated with a vehicle or P7C3 for 4 weeks. Then a glucose tolerance test was conducted.
as §1
An insulin tolerance test was also performed after 4 weeks of Nampt activator treatment as previously described.

In another data set the test system is H9C2 cardiomyoblasts. In words: NAD levels in H9C2 cardiomyoblasts. It is filed as cell-based. To be noted: H9C2, 10 μM, vs vehicle (1% DMSO) or FK866 (10 nM). An excerpt:
Nampt, a rate-limiting enzyme, controls the level of NAD+ and protects the heart by stimulating SIRT1. […] The data presented in this Example coupled with previous evidence of the ability of P7C3 to bind and activate Nampt unequivocally indicate that the rescue of arrythmogenic and myopathy changes noted in P7C3 treated db/db mice are in due to activation of Nampt activation, NAD elevation, and stimulation of Nampt-SIRT1 axis.

The subject of data set [5] is pancreatic islet β-cells of diabetic mice. The data set can be described thus: Pancreatic islets and beta cells, Gomori staining. It is filed as in vivo. To be noted: 10 mg/Kg daily, 4 weeks, vs vehicle. As for the experimental part:
Additionally diabetic mice were treated with P7C3 for 4 weeks with daily dose of 10 mg/Kg with P7C3 or vehicle. Thereafter, the pancreas was collected at necropsy and cryosectioned, the cross sections were stained for visualizing the damage of β-cells in diabetes and rescue by P7C3. […] P<0.01. ** indicates […] between Vehicle and P7C3 groups and *** indicates P<0.001 Vehicle and P7C3 groups as determined by a one-way ANOVA followed by Tukey test.

Data set [6] concerns db/db mice. The data set can be described thus: Blood sugar level in diabetic mouse model over 4 weeks. The format is in vivo. To be noted: 10 mg/kg i.p. daily. As for the experimental part: as §1
The test system of data set [7] is db/db mice. In words: Echocardiography, cardiomyopathy and cardiac performance. It is filed as in vivo. An excerpt:
A similar increase (p<0.05) in pulmonary VTI was also noted in the 20 week db/db mice when compared with WT controls. […] A similar increase in M-mode short axis measurements in 20 week db/db was also noted in left ventricular internal dimension (LVID) at both systole and diastole. […] This increase in LVID is indicative of increased heart size when compared with Wt controls.

Data set [8] relates to pancreatic islet β-cells of diabetic mice. In words: Immunohistochemical staining for insulin in pancreatic beta-islets. It is filed as in vivo. To be noted: vs vehicle.
Another data set has as its system wild-type C57 hearts. In words: Langendorff myocardial ischemia-reperfusion injury, wild-type hearts. Also noted: species or system mouse. To be noted: 10 μM, 45 min ischemia, 60 min reperfusion, vs vehicle. The protocol: Following a 45 minutes of ischemia in the wild type mouse hearts we utilized P7C3 and allowed reperfusion for first 30 minutes of reperfusion period during a 60 minutes reperfusion phase. […] Red portion of the stain in FIGS. 12A and 12C can indicate viable tissue, where as white or pale colored areas are infarcted areas. Qualification for the infract size is depicted in the accompanying bar graphs in each panel. ***p<0.0001, **p<0.001, vehicle vs. P7C3 in each group.

For the next data set, the system named is diabetic mice. The data set can be described thus: Insulin tolerance test (ITT). To be noted: about 10 mg/Kg daily, 4 weeks, insulin 5 U/Kg i.v. The format is in vivo. The protocol: Diabetic mice were utilized and treated with P7C3 for 4 weeks with a daily dose of about 10 mg/Kg P7C3 or vehicle. Thereafter, ITT (insulin tolerance test) was performed by injecting insulin 5 U/Kg body weight i.v. Blood glucose levels were monitored as shown in FIGS. 9A-9B.

[9] abbreviates: diabetic mice, 4 week treatment.

For the compound lactate, in the data set on Wt mouse heart, the “incidence of ventricular arrhythmia” value was 40%.
In the case of `OC(CNc1ccccc1)Cn1c2ccc(Br)cc2c2cc(Br)ccc21` (stereo not shown) [P7C3], the “protection from myocardial ischemia-reperfusion injury (infarct size)” value in the data set on diabetic hearts (db/db) was “cardioprotective effect”. For the same compound, in the data set with db/db mice [1], the QRS interval entry was “significantly reduced (p<0.001) back to Wt levels”, the QT interval result is “significantly reduced (p<0.001) back to Wt levels” and the QTc interval result was “significantly reduced (p<0.001) back to Wt levels”. Besides, the NADH/NAD ratio entry in the data set with db/db mice [2] is reported as “significantly attenuated”. For the same compound, the serum insulin levels result in the data set on db/db mice [3] is reported as “increased”. Further, in the data set on db/db mice [4], the “glucose tolerance after 2 hour glucose load” value is on record as “increased glucose tolerance” and the “insulin release after glucose load” value is given as “significantly (P<0.001) increased”. Also, in the data set on H9C2 cardiomyoblasts, the NAD levels result is listed as “significantly (P<0.01) increases”. For the same compound, in data set [5], the “beta cells per section” value was “significant improvement”, the “number of beta cells per islet” value is “improved” and the “number of pancreatic islets in a unit area of the pancreas” value was “improved”. Besides, the “net reduction in blood sugar levels” value in the data set with db/db mice [6] amounted to 173.2 mg/dL. The compound also yielded a blood sugar level with db/db mice [6] (at 4 weeks, vehicle db/db 467.5±34.2, wild type 209.8±6.1) of 214.5 ± 16.9 mg/dL. Also, in the data set on db/db mice [7] (4 week treatment), the cardiomyopathy entry is reported as “partial rescue”. Moreover, in the data set on db/db mice [7] (P7C3 treated diabetic mice), the “IVRT (isovolumic relaxation time)” value was “improvement in cardiac performance” and the “MPI (myocardial performance index)” value is “improvement in cardiac performance”. Also, the LV mass result in the data set with db/db mice [7] (db/db mice) is on record as “smaller increase”. In addition, in the data set on db/db mice [7] (db/db mice, 4-week treatment), the “aortic VTI” value is listed as “much less of an increase” and the “pulmonary VTI” value is “much less of an increase”. Also, the “left ventricular internal dimension (LVID)” value with db/db mice [7] (db/db mice, particularly at the diastole) is recorded as “much less increase”. In the data set with db/db mice [7] (setting [9]), the “% ejection fraction” value is listed as “significantly (p<0.05) decreased” and the “% fractional shortening” value is “significantly (p<0.05) decreased”. Besides, the “insulin positive beta-cells per islet area” value in data set [8] is recorded as “increased insulin production”. For the same compound, the “protection from myocardial ischemia-reperfusion injury (infarct size)” value in the data set with wild-type C57 hearts is listed as “cardioprotective effect”. Moreover, the “insulin sensitivity (insulin tolerance test, blood glucose)” value in the data set on diabetic mice is given as “improved insulin sensitivity”.
For `NC(=O)c1ccc[n+]([C@@H]2O[C@H](COP(=O)([O-])O)[C@@H](O)[C@H]2O)c1` [NMN, nicotinamide mononucleotide, reference compound], the NAD levels entry with H9C2 cardiomyoblasts was “significantly (P<0.01) increases”.

The values are drawn from patent US11007178B2, “Methods and uses of Nampt activators for treatment of diabetes, cardiovascular diseases, and symptoms thereof” (University of South Florida, priority 2016, dated 2021).
